According to patent US20070245431A1, “POLYUNSATURATED FATTY ACID PRODUCTION IN HETEROLOGOUS ORGANISMS USING PUFA POLYKETIDE SYNTHASE SYSTEMS” (priority 2006, published 2007):

What was measured:
[1] = test system: acyl-CoA synthetases; experiment: In vitro activity assay of Schizochytrium FAS-KO cell free homogenate with Triacsin C (HIP extraction, normal phase TLC); assay type: biochemical; conditions: Triacsin C 0, 25, 100 or 200 uM, 10 minutes, then ATP and Mg+2, additional 20 minutes; effect at higher concentrations
Description: An example of a protocol for preparation of cell free homogenates (CFH) from the cell wall deficient strains of Schizochytrium is as follows. Cells were grown in A50-3 medium and then diluted into M2B medium. The media used for growing the KO strains were supplemented with the appropriate fatty acid. Cells were grown to an OD600 nm of >˜2.5 and <˜5 in the M2B media. Cells in 50 mL of culture medium were collected by centrifugation (table top centrifuge—˜1200 rpm×4 minutes) in 50 mL plastic tubes. The supernatant was decanted and the cells resuspended 5 mL Buffer A (100 mM Phosphate pH 7.2, 10% (w/v) glycerol, 1 mM EDTA and 2 mM DTT) and centrifuged as before. The supernatant was discarded and the cells resuspended in ice cold 5 mL Buffer A. The suspension was sonicated (Ultrasonic Processor Model GE130 with microtip, Pulser at 2 seconds, ˜1 Watt power setting) with tube on ice for 1.5 minutes. The sample was checked by microscopy to ensure that all of the cells were broken. The CFH was aliquoted in 200 uL portions into 0.5 mL PCR tubes with caps and frozen by dropping into liquid N2. Samples were stored at −74° C. until needed.
An example of a protocol for in vitro activity assays of both FAS and PUFA synthase activities is as follows. […]

[2] = test system: yeast; experiment: Fatty acid profile (GC of FAMEs) of yeast strains grown without or with cerulenin (FAS inhibition); assay type: cell-based, Saccharomyces cerevisiae
Excerpt: The present inventors tested the effects of cerulenin on fatty acid profiles of the strains of yeast described in Example 8 as a model of the concept of reduction of FAS activity. The yeast described in Example 9, which also contained an acyl CoA-synthetase, were additionally tested in this system, to determine whether the effects of the two strategies would additively or synergistically increase PUFA production.
Initial experiments indicated the maximum effect (i.e., as an increase in PUFAs as a percentage of the total fatty acid profile) was obtained at a concentration of 4 uM cerulenin. The cerulenin was added 4 hours after transfer to the galactose induction medium. Cells were harvested 19 hr after transfer to induction medium, freeze dried, FAMES prepared and analyzed by GC.
The yeast strains tested were: • Strain 5.5 contained the PUFA synthase genes (sOrfA, sOrfB, OrfC and Het I), as described in Example 8 above; and • Strain 5.6 contained the PUFA synthase gene set of Strain 5.5, plus the ScACoAS-1 (SEQ ID NO:82), as described in Example 9 above.
Referring to Table 2, “0 Cer” indicates cerulenin was not added, and “4 uM Cer” indicates the media was made to 4 uM cerulenin 4 hours after transfer to the induction medium). Each strain was evaluated for fatty acid production in the presence and absence of the cerulenin, to evaluate the effect of the inhibition of the FAS pathway on PUFA production. […] The values are given as a percentage of the total fatty acids detected. DHA and DPAn-6, which are the products of the Schizochytrium PUFA PKS system, were the only PUFAs present in the profiles. FIGS. 9 and 10 illustrate the amount of DHA (FIG. 9) or DHA and DPAn-6 (FIG. 10; white bars are DHA; black bars are DHA+DPAn-6) produced by the yeast, as a percentage of total FAME.

[3] = test system: Schizochytrium; experiment: Knock out of the DAGAT gene in Schizochytrium, lipid profile; assay type: cell-based; conditions: inactivation of the DAGAT gene in Schizochytrium

`CCC/C=C/C/C=C/C=C/C=N/NN=O` [Triacsin C] was tested, and the “loss of radiolabel from the FFA band” value [1] was “blocked the loss of radiolabel from the FFA band”.

In the case of `C/C=C/C/C=C/CCC(=O)[C@H]1O[C@H]1C(N)=O` [cerulenin], the “DHA level, of total fatty acids” value ([2]; cells expressing both the PUFA synthase and ScACoAS-1 genes grown in 4 uM cerulenin (4.1% without)) is reported as 8.2%, the DHA level ([2]; cells with just the PUFA synthase system grown in 4 uM cerulenin (1.2% without)) is reported as 3.7% and the “concentration giving the maximum effect (increase in PUFAs as a percentage of the total fatty acid profile)” value ([2]; initial experiments) is reported as 4 µM.

B1: DAGAT: Schizochytrium diacylglycerol acyltransferase, SEQ ID NO:100/101 (protein, listed as Schizochytrium sp.)
chain: MERPQAQASPARSEARRRRGDRSKGFADEDGETSVNTPNGMQTPYSTSMGSVSSYSSSGDYAMSEAEGSEVDPADDRMGDSIGSKPSSSSVTGRRRLTQEERDYFLRLEKEWREEDAWADQPGSWYSMLAWMPVLIGLRVFNVLLSIAFWPVSFVARVFFGKKIHTVSFWDVPLSRRKQTAVVLLFVMLLPMVVVVYSWTLVLLLFPLTTFPTLCYMVWIIYVDKSPETGSRRPFLRYWKMWRHFANYFPLRLIRTTPLDSRRKYVFCYHPHGIISLGAFGNFATDSTGFSRKFPGIDLRVLTLALNFYCPLLREFLLYLGLCSAAKKSCNQILQRGPGSAIMLVVGGAAESLDSQPGTYRLTLGRKGFVRVALDNGADLVPVLAFGENDVFDTVYLPPNSWARNVQEFVRKKLGFATPIFSGRGIFQYNMGLMPHRRPIIVVVGKPIKMPKIPDELKGRALSTTAEGVALVDKYHEKYVKALRELWNLYKERWAVHRQGSLLIQK
For B1, the “reduction in TAG” value [3] was roughly 90% and the “reduction in mg FAME/gm biomass” value [3] was roughly 80%.
